Test results reported in patent publication EP0513703A2, “Carbamate esters of eseroline having anticholinesterase activity, a process for their preparation and relative pharmaceutical compositions containing them as the active principle” (priority 1991, dated 1992).
Where “and” joins values, the source holds several entries; their conditions need not be identical. Equal entries are not always repeated.

What was measured:
mice = assay: Toxicity, LD50 by intraperitoneal route (class B derivatives); type: in vivo; settings: death within 24 hours of 50% of the tested animals
Source text: In the following table reported are LD50 values determined on mice for the listed compounds and compared with that of physostigmine administered by the same (intraperitoneal) route.

[1] = target: T1, acetylicholinesterase enzyme in the mouse brain (Mus musculus, UniProt P21836); assay: Inhibition of acetylcholinesterase in the mouse brain after single doses (class B derivatives); type: in vivo; settings: single doses in the range 0.4-7mg/kg
T1 construct: from tissue; host or cells: mouse brain
T1 sequence (P21836 32-614): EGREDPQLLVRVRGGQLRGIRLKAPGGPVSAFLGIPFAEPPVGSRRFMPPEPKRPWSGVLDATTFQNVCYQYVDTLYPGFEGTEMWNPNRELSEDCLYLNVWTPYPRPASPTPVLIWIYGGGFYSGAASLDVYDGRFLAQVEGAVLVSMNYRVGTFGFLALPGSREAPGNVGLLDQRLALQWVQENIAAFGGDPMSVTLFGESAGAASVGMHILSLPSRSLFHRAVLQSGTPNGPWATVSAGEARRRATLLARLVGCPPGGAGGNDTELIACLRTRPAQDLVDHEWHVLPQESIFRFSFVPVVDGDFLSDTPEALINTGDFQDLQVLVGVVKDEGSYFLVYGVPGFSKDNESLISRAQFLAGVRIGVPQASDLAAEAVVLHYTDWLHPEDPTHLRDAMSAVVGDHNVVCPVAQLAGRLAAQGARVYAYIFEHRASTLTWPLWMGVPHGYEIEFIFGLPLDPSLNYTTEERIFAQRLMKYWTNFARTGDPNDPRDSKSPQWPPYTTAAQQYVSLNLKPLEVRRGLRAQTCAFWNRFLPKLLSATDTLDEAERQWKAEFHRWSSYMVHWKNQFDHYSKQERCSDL

mouse [2] = assay: Spontaneous motility, Dews method modified according to Carminati (class E derivatives); type: in vivo; settings: mouse (Strain Swiss); for decrease of the spontaneous motility (on average): oral, 0.25 mg/kg
Source text: (§1) The Dews method was used, modified according to Carminati (Arch. int. Pharmacodyn. et Thér 181, 68,1969).

mice (Swiss strain) [3] = assay: Acute toxicity, LD50 by oral route in mice (class E derivatives); type: in vivo; settings: mouse, suspension in 2 % carboxymethylcellulose, observation 7 days
Source text: The letal doses 50 (LD50) by oral route (suspension in 2 % carboxymethylcellulose) are reported herinbelow: TABLE 9

mouse [4] = assay: Toxicity, LD50 by intraperitoneal route (class C derivatives); type: in vivo
Source text: In the following table reported are the LD50 values determined on mouse for the compounds listed and compared with the corresponding LD50 value for physostigmine, administered by the same (intraperitoneal) route.

mouse [5] = assay: Spontaneous motility, Dews method modified according to Carminati (class A derivatives); type: in vivo; settings: mouse (Swiss), oral, starting from minimum doses of 4-6 mg/kg
Source text: as §1

mice (Swiss strain) [6] = assay: Acute toxicity, LD50 by oral route in mice (class A derivatives); type: in vivo; settings: mouse, suspension in 2 % carboxymethylcellulose, observation 7 days
Source text: The letal doses 50 (LD50) by oral route (suspension in 2 % carboxymethylcellulose) are reported herinbelow: TABLE 1

[7] = system: acetylcholinesterase (AchE); type: in vivo, Wistar male rats; settings: rat, oral, 1.5 to 4.5 mg/kg
[8] = system: anticholinesterase activity, on the mouse brain; assay: Inhibition of cholinesterase activity on the mouse brain after single doses (class C derivatives); type: in vivo; settings: for suppression of the enzymatic activity: even at higher doses; for duration of the inhibitory activity compared with physostigmine: mouse brain; for inhibition of the anticholinesterase activity, on the mouse brain (in words): single doses in the range 0.4-7mg/kg
motor activity = assay: Antagonist effect on the stimulating effect of scopolamine (class C derivatives); type: in vivo; settings: scopolamine 1 mg/kg; oral administration
Description: This is countered by the oral administration of 2.5 mg of ES001, ES002, ES003.

For `CN1CC[C@@]2(C)c3cc(OC(=O)NCCC(=O)O)ccc3N(C)[C@@H]12` [Compound M001], the “LD50 (mg/kg i.p.)” value (mice) was >20 mg/kg i.p. and <40 mg/kg i.p and the “inhibition of acetylicholinesterase enzyme in the mouse brain (in words)” value (“inhibition … in the mouse brain (in words)” below) [1] was “dose -dependence, reversible inhibition”.
With `CN1CC[C@@]2(C)c3cc(OC(=O)NCCCCCCNC(=O)Oc4ccc5c(c4)[C@]4(C)CCN(C)[C@@H]4N5C)ccc3N(C)[C@@H]12` [MS010, (3a S-cis) - 1,2,3,3a,8,8a hexahydro - 1,3a,8 - trimethyl pyrrol [2,3-b]-indol-5-ol-1,6-hexandicarbamate ester] the “oral dose causing a significant decrease of the spontaneous motility” value (from here on “oral dose causing a significant decrease”) (mouse [2]) was 0.25 mg/kg, the “decrease of the spontaneous motility (on average)” value (“decrease … (on average)” below) (mouse [2]) was roughly -25% and the LD50 per os (mice (Swiss strain) [3]) was 50.65 ± 5.48 mg/kg.
With `CN1CC[C@@]2(C)c3cc(OC(=O)NCC(O)CC(=O)O)ccc3N(C)[C@@H]12` (some centres unmarked) [Compound M007] the “LD50 (mg/kg i.p.)” value (mice) was >30 mg/kg i.p. and <60 mg/kg i.p and the “inhibition … in the mouse brain (in words)” value [1] was “dose -dependence, reversible inhibition”.
In the case of `CN1CC[C@@]2(C)c3cc(OC(=O)NCC(C)(O)c4ccccc4)ccc3N(C)[C@@H]12` (stereo partly drawn) [ES004, trimethyl-1,3a,8, hexahydro-1,2,3a, 8,8a-pyrrol (2,3-b) indol-5 (3aS,8aR)-2-hydroxy-2-phenylpropylcarbamate], the “LD50 (mg/kg i.p)” value (mouse [4]) is reported as >10 mg/kg i.p and <15 mg/kg i.p.
With `CN1CC[C@@]2(C)c3cc(OC(=O)NCC(O)CC4CCCCC4)ccc3N(C)[C@@H]12` (stereo partly drawn) [ES008, trimethyl-1,3a,8, hexahydro-1,2,3a,8,-8a pyrrol(2,3-b)indol-5-(3aS,8aR)-3-cyclohexyl-2-hydroxypropylcarbamate] the “LD50 (mg/kg i.p)” value (mouse [4]) was >20 mg/kg i.p and <30 mg/kg i.p.
In the case of `CN1CC[C@@]2(C)c3cc(OC(=O)NCCC(O)CC(=O)O)ccc3N(C)[C@@H]12` (some centres unmarked) [Compound M009], the “LD50 (mg/kg i.p.)” value (mice) is reported as >20 mg/kg i.p. and <40 mg/kg i.p and the “inhibition … in the mouse brain (in words)” value [1] is reported as “dose -dependence, reversible inhibition”.
`CN1CC[C@@]2(C)c3cc(OC(=O)NCC(=O)O)ccc3N(C)[C@@H]12` [MGS105, (3-as-cis) 1,2,3,3a,8,8a-hexahydro 1,3a,8-trimethyl pyrrol [2,3-b]-indol-5-ol (acetic acid) carbamate ester] was tested, and the “decrease … (on average)” value (mouse [5]) was roughly -30%, the LD50 per os (mice (Swiss strain) [6]) was 345.6 ± 24.86 mg/kg and the “inhibitory cerebral and serumal acetylcholinesterase activity (in words)” value [7] was “clear inhibitory dose-dependent and reversible”.
For `CC(CNC(=O)Oc1ccc2c(c1)[C@]1(C)CCN(C)[C@@H]1N2C)C(=O)O` (some centres unmarked) [Compound M002], the “LD50 (mg/kg i.p.)” value (mice) was >40 mg/kg i.p. and <80 mg/kg i.p and the “inhibition … in the mouse brain (in words)” value [1] was “dose -dependence, reversible inhibition”.
For `CN1CC[C@@]2(C)c3cc(OC(=O)NCCCCCCCNC(=O)Oc4ccc5c(c4)[C@]4(C)CCN(C)[C@@H]4N5C)ccc3N(C)[C@@H]12` [MS011, (3a S-cis) - 1,2,3,3a,8,8a hexahydro - 1,3a,8 - trimethyl pyrrol [2,3-b]-indol-5-ol-1,7-heptandicarbamate ester], the “oral dose causing a significant decrease” value (mouse [2]) was 0.25 mg/kg, the “decrease … (on average)” value (mouse [2]) was roughly -25% and the LD50 per os (mice (Swiss strain) [3]) was 63.31 ± 9.32 mg/kg.
With `CC(C)[C@H](NC(=O)Oc1ccc2c(c1)[C@]1(C)CCN(C)[C@@H]1N2C)C(=O)O` [MGS104, (3-as-cis) 1,2,3,3a,8,8a-hexahydro 1,3a,8-trimethyl pyrrol [2,3-b]-indol-5-ol-L-(3-methylbutyric acid) carbamate ester] the “decrease … (on average)” value (mouse [5]) was roughly -30%, the LD50 per os (mice (Swiss strain) [6]) was 423.0 ± 35.21 mg/kg and the “inhibitory cerebral and serumal acetylcholinesterase activity (in words)” value [7] was “clear inhibitory dose-dependent and reversible”.
`CC(CC(=O)O)NC(=O)Oc1ccc2c(c1)[C@]1(C)CCN(C)[C@@H]1N2C` (some centres unmarked) [Compound M008] was tested, and the “LD50 (mg/kg i.p.)” value (mice) was >20 mg/kg i.p. and <40 mg/kg i.p and the “inhibition … in the mouse brain (in words)” value [1] was “dose -dependence, reversible inhibition”.
For “trimethyl -1,3a,8-hexahydro-1,2,3a,8,8a-pyrrol(2,3-b)indol-5-(3aS,8aR)12-hydroxystearylpropylcarbamate [ES003]”, the “suppression of the enzymatic activity” value [8] was “do not completely suppress the enzymatic activity”, the “duration of the inhibitory activity compared with physostigmine” value [8] was “lasts longer than that of physostigmine” and the “inhibition of the anticholinesterase activity, on the mouse brain (in words)” value (shortened to “inhibition … on the mouse brain (in words)”) [8] was “dose-dependence, reversible inhibition”. For the same compound, the “LD50 (mg/kg i.p)” value (mouse [4]) was >40 mg/kg i.p and <80 mg/kg i.p and the “oral dose countering the stimulating effect of scopolamine” value (motor activity) was 2.5 mg.
`CCCCCCCCCCCCCCCCCC(=O)OC(CCCCCC)CNC(=O)Oc1ccc2c(c1)[C@]1(C)CCN(C)[C@@H]1N2C` (stereo partly drawn) [ES007, trimethyl-1,3a,8 hexahydro-1,2,3a,8,8a-pyrrol(2,3-b)indol-5-(3aS,8aR)-2-stearoyloxyoctanylcarbamate] was tested, and the “LD50 (mg/kg i.p)” value (mouse [4]) was >40 mg/kg i.p and <80 mg/kg i.p.
For `CC(C)C[C@H](NC(=O)Oc1ccc2c(c1)[C@]1(C)CCN(C)[C@@H]1N2C)C(=O)O` [MGS103, (3-aS-cis) 1,2,3,3a,8,8a-hexahydro 1,3a,8-trimethyl pyrrol [2,3-b]-indol-5-ol-L-2(4-methylvaleric acid) carbamate ester], the “decrease … (on average)” value (mouse [5]) was roughly -30%, the LD50 per os (mice (Swiss strain) [6]) was 412.6 ± 46.34 mg/kg and the “inhibitory cerebral and serumal acetylcholinesterase activity (in words)” value [7] was “clear inhibitory dose-dependent and reversible”.
With `CN1CC[C@@]2(C)c3cc(OC(=O)NC(CO)C(=O)O)ccc3N(C)[C@@H]12` (some centres unmarked) [Compound M006] the “inhibition … in the mouse brain (in words)” value [1] was “dose -dependence, reversible inhibition”.
In the case of `CN1CC[C@@]2(C)c3cc(OC(=O)NCCCCCCCCNC(=O)Oc4ccc5c(c4)[C@]4(C)CCN(C)[C@@H]4N5C)ccc3N(C)[C@@H]12` [MS002, Salicylate of (3a S-cis) - 1,2,3a,8,8a hexahydro - 1,3a,- trimethyl pyrrol [2,3-b]-indol-5-ol-1,8-octandicarbamate ester], the “oral dose causing a significant decrease” value (mouse [2]) is reported as 0.25 mg/kg, the “decrease … (on average)” value (mouse [2]) is reported as roughly -25% and the LD50 per os (mice (Swiss strain) [3]) is reported as 48.98 ± 6.31 mg/kg.
For `CN1CC[C@@]2(C)c3cc(OC(=O)NCCCCCCCCC(=O)O)ccc3N(C)[C@@H]12` [Compound M003], the “LD50 (mg/kg i.p.)” value (mice) was >30 mg/kg i.p. and <60 mg/kg i.p and the “inhibition … in the mouse brain (in words)” value [1] was “dose -dependence, reversible inhibition”.
With `CC(O)CNC(=O)Oc1ccc2c(c1)[C@]1(C)CCN(C)[C@@H]1N2C` (stereo partly drawn) [ES001, trimethyl-1,3a,8 hexahydro-1,2,3a,8,8a-pyrrol(2,3-b)indol-5(3aS,8aR)2-hydroxypropylcarbamate] the “suppression of the enzymatic activity” value [8] was “do not completely suppress the enzymatic activity”, the “duration of the inhibitory activity compared with physostigmine” value [8] was “lasts longer than that of physostigmine” and the “inhibition … on the mouse brain (in words)” value [8] was “dose-dependence, reversible inhibition”. For the same compound, the “LD50 (mg/kg i.p)” value (mouse [4]) was >20 mg/kg i.p and <40 mg/kg i.p and the “oral dose countering the stimulating effect of scopolamine” value (motor activity) was 2.5 mg.
In the case of `CN1CC[C@@]2(C)c3cc(OC(=O)Nc4ccccc4O)ccc3N(C)[C@@H]12` [ES005, trimethyl-1,3a,8 hexahydro-1,2,3a,8,8a-pyrrol(2,3-b)indol-5(3aS,8aR)-2-hydroxy-phenyl-carbamate], the “LD50 (mg/kg i.p)” value (mouse [4]) is reported as >15 mg/kg i.p and <30 mg/kg i.p.
In the case of `CN1CC[C@@]2(C)c3cc(OC(=O)NCCCCCNC(=O)Oc4ccc5c(c4)[C@]4(C)CCN(C)[C@@H]4N5C)ccc3N(C)[C@@H]12` [MS007, (3a S-cis) - 1,2,3,3a,8,8a hexahydro - 1,3a,8 - trimethyl pyrrol [2,3-b]-indol-5-ol-1,5-pentandicarbamate ester], the “oral dose causing a significant decrease” value (mouse [2]) is reported as 0.25 mg/kg, the “decrease … (on average)” value (mouse [2]) is reported as roughly -25% and the LD50 per os (mice (Swiss strain) [3]) is reported as 64.26 ± 10.29 mg/kg.
With `CCCCCCCC/C=C\CCCCCCCC(=O)OC(C)CNC(=O)Oc1ccc2c(c1)[C@]1(C)CCN(C)[C@@H]1N2C` (stereo partly drawn) [ES002, trimethyl-1,3a,8 hexahydro-1,2,3a,8,8a-pyrrol(2,3-b)indol-5(3aS,8aR)-2-oleoxypropylcarbamate] the “suppression of the enzymatic activity” value [8] was “do not completely suppress the enzymatic activity”, the “duration of the inhibitory activity compared with physostigmine” value [8] was “lasts longer than that of physostigmine” and the “inhibition … on the mouse brain (in words)” value [8] was “dose-dependence, reversible inhibition”. For the same compound, the “LD50 (mg/kg i.p)” value (mouse [4]) was >40 mg/kg i.p and <80 mg/kg i.p and the “oral dose countering the stimulating effect of scopolamine” value (motor activity) was 2.5 mg.
